Read-outs that look alike come from different tables or passages of the source.
How the values were obtained:
NF-κB [1] = test: Measurement of NF-κB activation using THP1-Blue NF-κB cells (SEAP); format: cell-based; conditions: for activity at 5 µM: 20 h, two point normalized, compound 1 as 200%; for NF-κB activity (SAR discussion, in words): evaluated in both the presence and absence of LPS; for NF-κB activity when tested alone (in words): compound alone, without LPS
NF-κB [2] = test: cell-based NF-κB FRET assay; conditions: compound + LPS; two point normalized, compound 1 as 200%, LPS (10 ng/mL) as 100%
Description: Site A was assigned the 4-substituent of thiazole ring, site B was the thiazole ring itself, site C was the central amide bond in the structure, site D was the benzene ring bearing 1,4-carboxyl and sulfamoyl group, site E was the sulfonamide functional group and site F was the amide substituent on the sulfamoyl group.

THP-1 cells = test: Cell viability assay (MTT); format: cell-based; conditions: compound 5 μM alone, 18 h, normalized to DMSO as 100%
Experimental: THP-1 cells were plated in 96-well plates (10^5 cells/well) in 100 μL RPMI supplemented with 10% FBS, 100 U/mL penicillin and 100 μg/ml streptomycin. Compounds were dissolved in DMSO at 1 mM stock solution and were further diluted to 10 μM in the assay medium. 100 μL of this solution was added to the cells to obtain a final compound concentration of 5 μM ([…]). After 18 h incubation, a solution of MTT in assay media (0.5 mg/mL) was added to each well and further incubated for 4 to 6 h, followed by addition of cell lysis buffer (15% w/v SDS and 0.12% v/v 12N HCl aqueous solution), incubated overnight, and then absorbance measured at 570 nm using 650 nm as reference using Tecan Infinite M200 plate reader.

[3] = compound 5 μM + LPS, LPS (10 ng/mL) as 100%, read-out: NF-κB SEAP Compound + LPS % Activation
[4] = compound 5 μM alone, LPS or DMSO as 100%, read-out: NF-κB SEAP Compound alone % Activation

Structure (SMILES) | activity at 5 µM (NF-κB [1]; [3]) [%] | activity at 5 µM (NF-κB [1]; [4]) [%] | NF-κB FRET Compound + LPS % Activation (NF-κB [2]) [%] | MTT Compound alone % Viability (THP-1 cells) [%] | NF-κB activity (SAR discussion, in words) (NF-κB [1]) | NF-κB activity when tested alone (in words) (NF-κB [1])
Cc1ccc(C)c(-c2nc(NC(=O)c3ccc(S(=O)(=O)N4CCCCC4)cc3)sc2C)c1 [Compound 18m, N-(4-(2,5-dimethylphenyl)-5-methylthiazol-2-yl)-4-(piperidin-1-ylsulfonyl)benzamide] | 179 | 159 | 186.92 | 96.90 | – | –
Cc1ccc(C)c(-c2nc(NC(=O)c3ccc(S(=O)(=O)N4CCCCC4)cc3)sc2Br)c1 [Compound 18n, N-(5-bromo-4-(2,5-dimethylphenyl)thiazol-2-yl)-4-(piperidin-1-ylsulfonyl)benzamide] | 198 | 133 | 154.54 | 84.46 | – | –
C#Cc1sc(NC(=O)c2ccc(S(=O)(=O)N3CCCCC3)cc2)nc1-c1cc(C)ccc1C [Compound 18o, N-(4-(2,5-dimethylphenyl)-5-ethynylthiazol-2-yl)-4-(piperidin-1-ylsulfonyl)benzamide] | 153 | 118 | 101.71 | 111.27 | weak activity | –
CCC#Cc1sc(NC(=O)c2ccc(S(=O)(=O)N3CCCCC3)cc2)nc1-c1cc(C)ccc1C [Compound 18p, N-(5-(but-1-yn-1-yl)-4-(2,5-dimethylphenyl)thiazol-2-yl)-4-(piperidin-1-ylsulfonyl)benzamide] | 192 | 291 | 210.21 | 120.17 | – | very potent
CCCC#Cc1sc(NC(=O)c2ccc(S(=O)(=O)N3CCCCC3)cc2)nc1-c1cc(C)ccc1C [Compound 18q, N-(4-(2,5-dimethylphenyl)-5-(pent-1-yn-1-yl)thiazol-2-yl)-4-(piperidin-1-ylsulfonyl)benzamide] | 242 | 393 | 215.78 | 105.84 | most potent | very potent
CCCCc1sc(NC(=O)c2ccc(S(=O)(=O)N3CCCCC3)cc2)nc1-c1cc(C)ccc1C [Compound 18s, N-(5-butyl-4-(2,5-dimethylphenyl)thiazol-2-yl)-4-(piperidin-1-ylsulfonyl)benzamide] | 124 | 116 | 176.96 | 141.98 | retained activity | –
CCCCCc1sc(NC(=O)c2ccc(S(=O)(=O)N3CCCCC3)cc2)nc1-c1cc(C)ccc1C [Compound 18t, N-(4-(2,5-dimethylphenyl)-5-pentylthiazol-2-yl)-4-(piperidin-1-ylsulfonyl)benzamide] | 132 | 119 | 213.25 | 110.37 | loss in activity | –
Cc1ccc(C)c(-c2csc(NCc3ccc(S(=O)(=O)N4CCCCC4)cc3)n2)c1 [Compound 34a, 4-(2,5-dimethylphenyl)-N-(4-(piperidin-1-ylsulfonyl)benzyl)thiazol-2-amine] | 102 | 99.1 | 106.53 | 85.48 | inactive | –

Source: patent US12091393B2, “Small molecule vaccine adjuvant for enhancing or prolonging immune response” (The Regents of the University of California, priority 2018, dated 2024)
